In US7563774B2, “Combination of FBPase inhibitors and antidiabetic agents useful for the treatment of diabetes” (Metabasis Therapeutics, Inc., priority 2000, dated 2009):

What was measured:
[1] = test system: streptozotocin-induced diabetic rat; test: Chronic combination treatment of a fatty acid oxidation inhibitor and an FBPase inhibitor in the streptozotocin-induced diabetic rat (Example JJ); format: in vivo; settings: etomoxir 3-300 mg/kg s.c., Compound J 0.2% w/w food admixture, 2-6 weeks
Method: Male Sprague-Dawley rats (Charles Rivers Laboratories) weighing approximately 120 g at the beginning of the study are housed under standard vivarium conditions and fed standard chow (Purina 5001). Rats are rendered diabetic by injection of 55 mg/kg body weight of streptozotocin (STZ) in citrate buffer, pH 4.7. […] Drug treatment is continued for 2-6 weeks. Blood glucose levels are monitored at regular intervals during the treatment period. At the end of the study, rats are anesthetized and instrumented with jugular vein and carotid artery catheters. Hepatic glucose production is measured using a primed constant infusion of (^3H)-6-glucose. Blood samples are taken after two hours, and the specific activity of glucose measured by […]. Hepatic glucose production rater are calculated by standard methods.

human liver FBPase = target: T1, human liver FBPase (Homo sapiens, UniProt P09467); test: Inhibition of human liver FBPase (Example A); format: biochemical
T1 construct: made in house; host or cells: E. coli BL21
T1 sequence (P09467 2-338 limits assumed): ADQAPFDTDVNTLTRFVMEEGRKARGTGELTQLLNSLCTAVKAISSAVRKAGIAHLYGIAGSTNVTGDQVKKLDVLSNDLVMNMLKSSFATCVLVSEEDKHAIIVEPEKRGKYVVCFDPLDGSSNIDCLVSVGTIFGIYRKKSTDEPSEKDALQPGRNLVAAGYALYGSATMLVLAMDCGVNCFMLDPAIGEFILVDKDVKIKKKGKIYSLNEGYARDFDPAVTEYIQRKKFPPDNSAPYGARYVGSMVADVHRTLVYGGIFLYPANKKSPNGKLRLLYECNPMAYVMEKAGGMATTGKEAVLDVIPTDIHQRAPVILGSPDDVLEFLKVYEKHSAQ
Method: (§1) Enzymatic activity was measured spectrophotometrically in reactions that coupled the formation of product (fructose 6- phosphate) to the reduction of dimethylthiazoldiphenyltetrazolium bromide (MTT) via NADP and phenazine methosulfate (PMS), using phosphoglucose isomerase and glucose 6-phosphate dehydrogenase as the coupling enzymes. […] Inhibitor concentrations were varied from 0.01 μM to 10 μM. Reactions were started by the addition of 0.002 units of pure hlFBPase and were monitored for 7 minutes at 590 nm in a Molecular Devices Plate Reader (37° C.).

rat liver FBPase = target: T2, rat liver FBPase (Rattus norvegicus, UniProt P19112); test: Inhibition of rat liver FBPase (Example B); format: biochemical
T2 construct: made in house; host or cells: E. coli BL21
T2 sequence (P19112 2-363 limits assumed): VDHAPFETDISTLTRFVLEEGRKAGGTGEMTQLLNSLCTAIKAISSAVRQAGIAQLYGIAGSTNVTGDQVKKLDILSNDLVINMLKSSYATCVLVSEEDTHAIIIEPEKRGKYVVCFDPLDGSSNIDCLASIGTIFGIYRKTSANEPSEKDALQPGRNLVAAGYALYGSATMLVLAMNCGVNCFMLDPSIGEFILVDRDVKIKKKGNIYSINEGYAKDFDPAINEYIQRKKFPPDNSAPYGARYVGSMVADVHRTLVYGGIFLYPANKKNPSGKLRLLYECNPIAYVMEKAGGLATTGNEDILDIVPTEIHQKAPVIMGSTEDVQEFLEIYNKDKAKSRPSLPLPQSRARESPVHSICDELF

mouse liver FBPase = target: T3, mouse liver FBPase (Mus musculus, UniProt Q9QXD6); test: Inhibition of mouse liver FBPase (Example B); format: biochemical
T3 construct: This partially purified fraction was used for enzyme assays; from tissue; host or cells: mouse liver (45-75% ammonium sulfate fraction of homogenate)
T3 sequence (Q9QXD6 2-338 limits assumed): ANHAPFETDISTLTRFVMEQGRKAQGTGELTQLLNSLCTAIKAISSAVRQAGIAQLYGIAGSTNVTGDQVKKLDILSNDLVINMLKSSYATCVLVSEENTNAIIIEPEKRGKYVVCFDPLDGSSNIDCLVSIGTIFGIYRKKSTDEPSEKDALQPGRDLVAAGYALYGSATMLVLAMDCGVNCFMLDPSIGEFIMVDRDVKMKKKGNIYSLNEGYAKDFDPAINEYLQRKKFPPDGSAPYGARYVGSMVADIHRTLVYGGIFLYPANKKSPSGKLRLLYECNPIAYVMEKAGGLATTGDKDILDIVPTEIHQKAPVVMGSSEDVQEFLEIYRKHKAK
Method: as §1
Mouse liver FBPase was obtained by homogenizing freshly isolated mouse liver in 100 mM Tris-HCl buffer, pH 7.4, containing 1 mM EGTA, and 10% glycerol. […] This fraction was redissolved in the homogenization buffer and desalted on a PD-10 gel filtration column (Biorad) eluted with same. This partially purified fraction was used for enzyme assays.

Sprague Dawley rats = test: Oral glucose lowering in overnight fasted Sprague Dawley rats (Example G); format: in vivo, rat; settings: 4 h
Method: Oral efficacy of Compound J was assessed in overnight fasted Sprague Dawley rats. […] At 1.5 h or 4 h post drug administration, a blood sample was taken from the tail vein and analyzed for blood glucose by means of an automated glucose analyzer (HemoCue, HemoCue Inc, Mission Viejo, Calif.).

db/db mice = test: Glucose lowering in the db/db mouse (Example V); format: in vivo; settings: last treatment day (day 18)
Method: Treatment was for 18 days. […] Differences between groups were evaluated by the Student's t-test. Results are considered significant with p<0.05.

[2] = test system: Zucker Diabetic Fatty (ZDF) rat; test: Glucose lowering in the ZDF rat (Example W); format: in vivo
Text: The Zucker Diabetic Fatty (ZDF) rat is widely used as a model for human NIDDM as the progression of the disease in these rodents is similar to that described for human […] patients. […] Clark J B, Palmer C J (1982) Diabetes 30: 126A Terrettaz J, Jeanrenaud B (1983) Endocrinology 112: 1346-1351.

C57BL/KsJ db/db mice [3] = test: Acute combination treatment of insulin and Compound G in db/db mice (Example Z); format: in vivo, mouse
Method: Male C57BL/KsJ db/db mice were purchased at 5 weeks of age from Clea Japan, Inc. (Tokyo, Japan). The mice were maintained under standard vivarium conditions (24-26° C., 12-hour light cycle, 12-hour dark cycle) and received standard chow and water ad libitum. At 20 weeks of age, animals were divided into 4 groups (n=6/group). The treatment groups were control, compound G, insulin, and the combination of compound G and insulin. […] Insulin (human recombinant insulin, Penfill R300, Novo Nordisk, Denmark) was injected subcutaneously at a dose of 1.5 U/kg. Food was removed after treatment. Blood glucose levels in tail vein samples were measured by means of a Glucoloader-F, an automatic glucose analyzer, (A&T Co., Ltd., Tokyo, Japan).

C57BL/KsJ db/db mice [4] = test: Chronic combination treatment of insulin and Compound G in db/db mice (Example AA); format: in vivo, mouse; settings: db/db mice, 3 weeks
Method: Male C57BL/KsJ db/db mice were purchased at 5 weeks of age from Clea Japan, Inc. (Tokyo, Japan). The mice were maintained under standard vivarium conditions (24-26° C., 12-hour light cycle, 12-hour dark cycle) and received standard chow and water ad libitum. At 16 weeks of age, animals were divided into 2 groups (n=5 or 9-10/group). Both groups were subcutaneously injected with human recombinant insulin (Penfill N300, Novo Nordisk, Denmark) on a daily basis to adjust plasma glucose levels to the target range of 250 to 300 mg/dL.

[5] = test system: streptozotocin diabetic Sprague Dawley rats; test: Acute combination treatment of an FBPase inhibitor and an amylin agonist in streptozotocin diabetic rats (Example HH); format: in vivo, rat; settings: pramlintide 10 micrograms i.v., Compound J 300 mg/kg p.o.
Method: Animals are then gavaged with 1 mL 50% glucose, and allowed ad libitum access to food. Blood glucose is collected from the tail vein at 0, 30, 60, 120, 180, and 240 minutes following glucose administration.

Db/db or ob/ob mice = test: Acute combination treatment of a glycogen phosphorylase inhibitor and an FBPase inhibitor in db/db or ob/ob mice (Example FF); format: in vivo, mouse; settings: 0.5 to 300 mg/kg p.o.
Method: Db/db or ob/ob mice are purchased at 5 weeks of age from Jackson Laboratories (Bar Harbor, Me.). The mice are maintained under standard vivarium conditions (24-26° C., 12-hour light cycle, 12-hour dark cycle) and receive standard chow and water ad libitum. At more than 10 weeks of age, animals are divided into 4 groups (n=5 to 7/group). […] Food is made available after treatment. Blood glucose levels in tail vein samples are measured by means of standard manual or automated methods.

In the case of CCOC(=O)[C@@]1(CCCCCCOc2ccc(Cl)cc2)CO1 [etomoxir, reference compound], the Blood Glucose [1] is reported as “lowered significantly”.

Nc1ncnc2c1ncn2[C@@H]1O[C@H](COP(=O)(O)O)[C@@H](O)[C@H]1O [AMP] gave an IC50 (human liver FBPase) of 1.3 µM, an IC50 (rat liver FBPase) of 25 µM and an IC50 (mouse liver FBPase) of 15 µM.

CSc1sc(N)nc1-c1ccc(P(=O)(O)O)o1 [Compound G, 2-Amino-5-methylthio-4-[2-(5-phosphono)furanyl]thiazole] was tested, and the “Glucose Lowering, %” value (Sprague Dawley rats; Compound G 10 mg/kg p.o.) was 48%, the “Glucose Lowering, %” value (Sprague Dawley rats; Compound G 30 mg/kg p.o.) was greater than 70% and the “blood glucose levels versus control group” value (db/db mice) was “significantly lower than those in the control group”. For the same molecule, the glycemic control [2] was “significantly improved glycemic control”, the “Blood Glucose” value ([2]; 0.2% food admixture, Day 14) was 530 ± 48 mg/dL and the “Plasma Glucose, % of pretreatment values” (C57BL/KsJ db/db mice [3]; after 1 hour) was “(84.2 +/− 1.9) %”. The “Plasma Glucose” value (C57BL/KsJ db/db mice [3]; after 1 hour, Compound G 200 mg/kg p.o., insulin 1.5 U/kg s.c.) was 650.8 ± 14.8 mg/dL, the “Plasma Glucose” value (C57BL/KsJ db/db mice [3]; after 4 hours) was 373.7 ± 24.7 mg/dL and the “Plasma Glucose, % of pretreatment values” (C57BL/KsJ db/db mice [3]; after 4 hours) was “(48.6 +/− 4.0) %”. The “Plasma Glucose” value (C57BL/KsJ db/db mice [3]; after […]) was 459.7 ± 11.5 mg/dL, the “Plasma Glucose, % of pretreatment values” (C57BL/KsJ db/db mice [3]; after […]) was “(59.6 +/− 2.3) %” and the “Plasma Glucose” value (C57BL/KsJ db/db mice [3]; before (0 hour)) was 774.0 ± 18.3 mg/dL. The “Plasma Glucose, % of pretreatment values” (C57BL/KsJ db/db mice [3]; before (0 hour)) was “(100.0 +/− 0.0) %”, the plasma glucose lowering (C57BL/KsJ db/db mice [3]; db/db mice, acute) was “progressively decreased plasma glucose levels” and the “insulin dose required to lower plasma glucose to the target range” value (C57BL/KsJ db/db mice [4]) was “remarkably decreased the insulin dose required”.

CC[C@H](C)[C@H](NC(=O)[C@@H]1CCCN1C(=O)CNC(=O)[C@H](Cc1ccccc1)NC(=O)[C@H](CC(N)=O)NC(=O)[C@H](CC(N)=O)NC(=O)[C@H](CO)NC(=O)[C@H](CO)NC(=O)[C@H](Cc1c[nH]cn1)NC(=O)[C@@H](NC(=O)[C@H](CC(C)C)NC(=O)[C@H](Cc1ccccc1)NC(=O)[C@H](CC(N)=O)NC(=O)[C@H](C)NC(=O)[C@H](CC(C)C)NC(=O)[C@H](CCCNC(=N)N)NC(=O)[C@H](CCC(N)=O)NC(=O)[C@@H](NC(=O)[C@H](C)NC(=O)[C@@H]1CSSC[C@H](NC(=O)[C@@H](N)CCCCN)C(=O)N[C@@H](CC(N)=O)C(=O)N[C@@H]([C@@H](C)O)C(=O)N[C@@H](C)C(=O)N[C@@H]([C@@H](C)O)C(=O)N1)[C@@H](C)O)C(C)C)C(=O)N[C@@H](CC(C)C)C(=O)N1CCC[C@H]1C(=O)N1CCC[C@H]1C(=O)N[C@H](C(=O)N[C@@H](CC(N)=O)C(=O)N[C@H](C(=O)NCC(=O)N[C@@H](CO)C(=O)N[C@@H](CC(N)=O)C(=O)N[C@H](C(=O)N[C@@H](Cc1ccc(O)cc1)C(N)=O)[C@@H](C)O)C(C)C)[C@@H](C)O [pramlintide, reference compound] was tested, and the postprandial glucose excursion [5] was “attenuated the postprandial glucose excursion”.

CN(C)C(=O)[C@H](O)[C@H](Cc1ccccc1)NC(=O)c1cc2cc(Cl)ccc2[nH]1 [CP-91149, reference compound] was tested, and the blood glucose lowering (Db/db or ob/ob mice) was “significantly lower blood glucose relative to control values”.
